# According to ChEMBL document CHEMBL3044945, “Synthesis of 1,3,5-trisubstituted pyrazoline nucleus containing compounds and screening for antimicrobial activity” (2012):
# Tests used:
# Format in all cases: functional
# Bacillus subtilis [1] = assay: Antibacterial activity against Bacillus subtilis MTCC 441 at 1000 ug/ml after 48 hr by cup-plate method; conditions: MTCC 441, 48 h, read-out: DIZ
# Bacillus subtilis [2] = assay: Antibacterial activity against Bacillus subtilis MTCC 441 at 750 ug/ml after 48 hr by cup-plate method; conditions: MTCC 441, 48 h, read-out: DIZ
# Pseudomonas fluorescens [3] = assay: Antibacterial activity against Pseudomonas fluorescens MTCC 2421 at 750 ug/ml after 48 hr by cup-plate method; conditions: MTCC 2421, 48 h, read-out: DIZ
# Escherichia coli [4] = assay: Antibacterial activity against Escherichia coli MTCC 1573 at 1250 ug/ml after 48 hr by cup-plate method; conditions: MTCC 1573, 48 h, read-out: DIZ
# Staphylococcus aureus [5] = assay: Antibacterial activity against Staphylococcus aureus MTCC 1430 at 1250 ug/ml after 48 hr by cup-plate method; conditions: MTCC 1430, 48 h, read-out: DIZ
# Pseudomonas aeruginosa [6] = assay: Antibacterial activity against Pseudomonas aeruginosa MTCC 424 at 250 ug/ml after 48 hr by cup-plate method; conditions: MTCC 424, 48 h, read-out: DIZ
# Bacillus subtilis [7] = assay: Antibacterial activity against Bacillus subtilis MTCC 441 at 500 ug/ml after 48 hr by cup-plate method; conditions: MTCC 441, 48 h, read-out: DIZ
# Escherichia coli [8] = assay: Antibacterial activity against Escherichia coli MTCC 1573 at 500 ug/ml after 48 hr by cup-plate method; conditions: MTCC 1573, 48 h, read-out: DIZ
# Aspergillus niger [9] = assay: Antifungal activity against Aspergillus niger MTCC 2546 at 250 ug/ml after 48 hr by cup-plate method; conditions: MTCC 2546, 48 h, read-out: DIZ
# Bacillus pumilus [10] = assay: Antibacterial activity against Bacillus pumilus MTCC 1456 at 250 ug/ml after 48 hr by cup-plate method; conditions: MTCC 1456, 48 h, read-out: DIZ
# Micrococcus luteus [11] = assay: Antibacterial activity against Micrococcus luteus MTCC 1538 at 1250 ug/ml after 48 hr by cup-plate method; conditions: MTCC 1538, 48 h, read-out: DIZ
# Escherichia coli [12] = assay: Antibacterial activity against Escherichia coli MTCC 1573 at 1000 ug/ml after 48 hr by cup-plate method; conditions: MTCC 1573, 48 h, read-out: DIZ
# Escherichia coli [13] = assay: Antibacterial activity against Escherichia coli MTCC 1573 after 24 to 48 hr by tube dilution method
# Bacillus subtilis [14] = assay: Antibacterial activity against Bacillus subtilis MTCC 441 at 250 ug/ml after 48 hr by cup-plate method; conditions: MTCC 441, 48 h, read-out: DIZ
# Aspergillus niger [15] = assay: Antifungal activity against Aspergillus niger MTCC 2546 at 100 ug/ml after 48 hr by cup-plate method; conditions: MTCC 2546, 48 h, read-out: DIZ
# Penicillium chrysogenum [16] = assay: Antifungal activity against Penicillium chrysogenum MTCC 161 after 24 to 48 hr by tube dilution method
# Pseudomonas aeruginosa [17] = assay: Antibacterial activity against Pseudomonas aeruginosa MTCC 424 after 24 to 48 hr by tube dilution method
# Aspergillus niger [18] = assay: Antifungal activity against Aspergillus niger MTCC 2546 at 500 ug/ml after 48 hr by cup-plate method; conditions: MTCC 2546, 48 h, read-out: DIZ
# Penicillium chrysogenum [19] = assay: Antifungal activity against Penicillium chrysogenum MTCC 161 at 750 ug/ml after 48 hr by cup-plate method; conditions: MTCC 161, 48 h, read-out: DIZ
# Staphylococcus aureus [20] = assay: Antibacterial activity against Staphylococcus aureus MTCC 1430 at 750 ug/ml after 48 hr by cup-plate method; conditions: MTCC 1430, 48 h, read-out: DIZ
# Penicillium chrysogenum [21] = assay: Antifungal activity against Penicillium chrysogenum MTCC 161 at 1000 ug/ml after 48 hr by cup-plate method; conditions: MTCC 161, 48 h, read-out: DIZ
# Penicillium chrysogenum [22] = assay: Antifungal activity against Penicillium chrysogenum MTCC 161 at 500 ug/ml after 48 hr by cup-plate method; conditions: MTCC 161, 48 h, read-out: DIZ
# Penicillium chrysogenum [23] = assay: Antifungal activity against Penicillium chrysogenum MTCC 161 at 100 ug/ml after 48 hr by cup-plate method; conditions: MTCC 161, 48 h, read-out: DIZ
# Aspergillus niger [24] = assay: Antifungal activity against Aspergillus niger MTCC 2546 after 24 to 48 hr by tube dilution method
# Pseudomonas aeruginosa [25] = assay: Antibacterial activity against Pseudomonas aeruginosa MTCC 424 at 750 ug/ml after 48 hr by cup-plate method; conditions: MTCC 424, 48 h, read-out: DIZ
# Aspergillus niger [26] = assay: Antifungal activity against Aspergillus niger MTCC 2546 at 1000 ug/ml after 48 hr by cup-plate method; conditions: MTCC 2546, 48 h, read-out: DIZ
# Micrococcus luteus [27] = assay: Antibacterial activity against Micrococcus luteus MTCC 1538 at 1000 ug/ml after 48 hr by cup-plate method; conditions: MTCC 1538, 48 h, read-out: DIZ
# Pseudomonas aeruginosa [28] = assay: Antibacterial activity against Pseudomonas aeruginosa MTCC 424 at 1000 ug/ml after 48 hr by cup-plate method; conditions: MTCC 424, 48 h, read-out: DIZ
# Bacillus pumilus [29] = assay: Antibacterial activity against Bacillus pumilus MTCC 1456 at 500 ug/ml after 48 hr by cup-plate method; conditions: MTCC 1456, 48 h, read-out: DIZ
# Bacillus subtilis [30] = assay: Antibacterial activity against Bacillus subtilis MTCC 441 at 1250 ug/ml after 48 hr by cup-plate method; conditions: MTCC 441, 48 h, read-out: DIZ
# Pseudomonas aeruginosa [31] = assay: Antibacterial activity against Pseudomonas aeruginosa MTCC 424 at 500 ug/ml after 48 hr by cup-plate method; conditions: MTCC 424, 48 h, read-out: DIZ
# Bacillus pumilus [32] = assay: Antibacterial activity against Bacillus pumilus MTCC 1456 after 24 to 48 hr by tube dilution method
# Bacillus pumilus [33] = assay: Antibacterial activity against Bacillus pumilus MTCC 1456 at 1250 ug/ml after 48 hr by cup-plate method; conditions: MTCC 1456, 48 h, read-out: DIZ
# Staphylococcus aureus [34] = assay: Antibacterial activity against Staphylococcus aureus MTCC 1430 at 1000 ug/ml after 48 hr by cup-plate method; conditions: MTCC 1430, 48 h, read-out: DIZ
# Pseudomonas fluorescens [35] = assay: Antibacterial activity against Pseudomonas fluorescens MTCC 2421 after 24 to 48 hr by tube dilution method
# Bacillus pumilus [36] = assay: Antibacterial activity against Bacillus pumilus MTCC 1456 at 1000 ug/ml after 48 hr by cup-plate method; conditions: MTCC 1456, 48 h, read-out: DIZ
# Escherichia coli [37] = assay: Antibacterial activity against Escherichia coli MTCC 1573 at 750 ug/ml after 48 hr by cup-plate method; conditions: MTCC 1573, 48 h, read-out: DIZ
# Staphylococcus aureus [38] = assay: Antibacterial activity against Staphylococcus aureus MTCC 1430 at 250 ug/ml after 48 hr by cup-plate method; conditions: MTCC 1430, 48 h, read-out: DIZ
# Bacillus pumilus [39] = assay: Antibacterial activity against Bacillus pumilus MTCC 1456 at 750 ug/ml after 48 hr by cup-plate method; conditions: MTCC 1456, 48 h, read-out: DIZ
# Pseudomonas aeruginosa [40] = assay: Antibacterial activity against Pseudomonas aeruginosa MTCC 424 at 1250 ug/ml after 48 hr by cup-plate method; conditions: MTCC 424, 48 h, read-out: DIZ
# Bacillus pumilus [41] = assay: Antibacterial activity against Bacillus pumilus MTCC 1456 at 100 ug/ml after 48 hr by cup-plate method; conditions: MTCC 1456, 48 h, read-out: DIZ
# Micrococcus luteus [42] = assay: Antibacterial activity against Micrococcus luteus MTCC 1538 at 750 ug/ml after 48 hr by cup-plate method; conditions: MTCC 1538, 48 h, read-out: DIZ
# Bacillus subtilis [43] = assay: Antibacterial activity against Bacillus subtilis MTCC 441 at 100 ug/ml after 48 hr by cup-plate method; conditions: MTCC 441, 48 h, read-out: DIZ
smiles,measurement,setting,value
O=[N+]([O-])c1ccc(C2CC(c3cccc4ccccc34)=NN2)cc1 (stereo not drawn),zone of inhibition at 1000 µg/mL,Bacillus subtilis [1],16 mm
same,zone of inhibition at 750 µg/mL,Bacillus subtilis [2],15 mm
same,zone of inhibition at 750 µg/mL,Pseudomonas fluorescens [3],14 mm
same,zone of inhibition at 1250 µg/mL,Escherichia coli [4],18 mm
same,zone of inhibition at 1250 µg/mL,Staphylococcus aureus [5],16 mm
same,zone of inhibition at 250 µg/mL,Pseudomonas aeruginosa [6],10 mm
same,zone of inhibition at 500 µg/mL,Bacillus subtilis [7],13 mm
same,zone of inhibition at 500 µg/mL,Escherichia coli [8],11 mm
same,zone of inhibition at 250 µg/mL,Aspergillus niger [9],9 mm
same,zone of inhibition at 250 µg/mL,Bacillus pumilus [10],9 mm
same,zone of inhibition at 1250 µg/mL,Micrococcus luteus [11],15 mm
same,zone of inhibition at 1000 µg/mL,Escherichia coli [12],15 mm
same,MIC,Escherichia coli [13],200 µg/mL
same,zone of inhibition at 250 µg/mL,Bacillus subtilis [14],12 mm
same,zone of inhibition at 100 µg/mL,Aspergillus niger [15],8 mm
same,MIC,Penicillium chrysogenum [16],50 µg/mL
same,MIC,Pseudomonas aeruginosa [17],30 µg/mL
same,zone of inhibition at 500 µg/mL,Aspergillus niger [18],10 mm
same,zone of inhibition at 750 µg/mL,Penicillium chrysogenum [19],14 mm
same,zone of inhibition at 750 µg/mL,Staphylococcus aureus [20],13 mm
same,zone of inhibition at 1000 µg/mL,Penicillium chrysogenum [21],15 mm
same,zone of inhibition at 500 µg/mL,Penicillium chrysogenum [22],10 mm
same,zone of inhibition at 100 µg/mL,Penicillium chrysogenum [23],8 mm
same,MIC,Aspergillus niger [24],50 µg/mL
same,zone of inhibition at 750 µg/mL,Pseudomonas aeruginosa [25],12 mm
same,zone of inhibition at 1000 µg/mL,Aspergillus niger [26],16 mm
same,zone of inhibition at 1000 µg/mL,Micrococcus luteus [27],13 mm
same,zone of inhibition at 1000 µg/mL,Pseudomonas aeruginosa [28],13 mm
same,zone of inhibition at 500 µg/mL,Bacillus pumilus [29],10 mm
same,zone of inhibition at 1250 µg/mL,Bacillus subtilis [30],19 mm
same,zone of inhibition at 500 µg/mL,Pseudomonas aeruginosa [31],11 mm
same,MIC,Bacillus pumilus [32],30 µg/mL
same,zone of inhibition at 1250 µg/mL,Bacillus pumilus [33],22 mm
same,zone of inhibition at 1000 µg/mL,Staphylococcus aureus [34],14 mm
same,MIC,Pseudomonas fluorescens [35],150 µg/mL
same,zone of inhibition at 1000 µg/mL,Bacillus pumilus [36],17 mm
same,zone of inhibition at 750 µg/mL,Escherichia coli [37],13 mm
same,zone of inhibition at 250 µg/mL,Staphylococcus aureus [38],10 mm
same,zone of inhibition at 750 µg/mL,Bacillus pumilus [39],14 mm
same,zone of inhibition at 1250 µg/mL,Pseudomonas aeruginosa [40],15 mm
same,zone of inhibition at 100 µg/mL,Bacillus pumilus [41],8 mm
same,zone of inhibition at 750 µg/mL,Micrococcus luteus [42],12 mm
same,zone of inhibition at 100 µg/mL,Bacillus subtilis [43],10 mm
